Experimental data: BigSolDB 2.1

COC(=O)[C@H](N)c1ccccc1.Cl
solubility (mole fraction) (in acetone, 283.15 K): 1.3e-05 | solubility (mole fraction) (in acetone, 293.15 K): 3.6e-05 | solubility (mole fraction) (in acetone, 303.15 K): 7.8e-05 | solubility (mole fraction) (in acetone, 313.15 K): 0.00013 | solubility (mole fraction) (in acetone, 323.15 K): 0.00018 | solubility (mole fraction) (in acetone, 333.15 K): 0.00025 | solubility (mole fraction) (in ethanol, 283.15 K): 0.015 | solubility (mole fraction) (in ethanol, 293.15 K): 0.022 | solubility (mole fraction) (in ethanol, 303.15 K): 0.028 | solubility (mole fraction) (in ethanol, 313.15 K): 0.033 | solubility (mole fraction) (in ethanol, 323.15 K): 0.037 | solubility (mole fraction) (in ethanol, 333.15 K): 0.042 | solubility (mole fraction) (in ethyl acetate, 283.15 K): 3.9e-05 | solubility (mole fraction) (in ethyl acetate, 293.15 K): 8.5e-05 | solubility (mole fraction) (in ethyl acetate, 303.15 K): 0.00015 | solubility (mole fraction) (in ethyl acetate, 313.15 K): 0.00021 | solubility (mole fraction) (in ethyl acetate, 323.15 K): 0.00025 | solubility (mole fraction) (in ethyl acetate, 333.15 K): 0.00029 | solubility (mole fraction) (in methanol, 283.15 K): 0.076 | solubility (mole fraction) (in methanol, 293.15 K): 0.081 | solubility (mole fraction) (in methanol, 303.15 K): 0.085 | solubility (mole fraction) (in methanol, 313.15 K): 0.09 | solubility (mole fraction) (in methanol, 323.15 K): 0.096 | solubility (mole fraction) (in methanol, 333.15 K): 0.1 | solubility (mole fraction) (in toluene, 283.15 K): 9e-06 | solubility (mole fraction) (in toluene, 293.15 K): 1.5e-05 | solubility (mole fraction) (in toluene, 303.15 K): 2.3e-05 | solubility (mole fraction) (in toluene, 313.15 K): 3.3e-05 | solubility (mole fraction) (in toluene, 323.15 K): 4.4e-05 | solubility (mole fraction) (in toluene, 333.15 K): 5.6e-05 | solubility (mole fraction) (in water, 283.15 K): 0.045 | solubility (mole fraction) (in water, 293.15 K): 0.058 | solubility (mole fraction) (in water, 303.15 K): 0.068 | solubility (mole fraction) (in water, 313.15 K): 0.077 | solubility (mole fraction) (in water, 323.15 K): 0.086 | solubility (mole fraction) (in water, 333.15 K): 0.095
